The IC50 is the midpoint of a concentration-inhibition curve. High values mean a need for much substance, low ones inhibition by little substance.

The target of one test is T1, RORc ligand binding domain (Homo sapiens, UniProt P51449).
T1 sequence (P51449 269-508 limits assumed): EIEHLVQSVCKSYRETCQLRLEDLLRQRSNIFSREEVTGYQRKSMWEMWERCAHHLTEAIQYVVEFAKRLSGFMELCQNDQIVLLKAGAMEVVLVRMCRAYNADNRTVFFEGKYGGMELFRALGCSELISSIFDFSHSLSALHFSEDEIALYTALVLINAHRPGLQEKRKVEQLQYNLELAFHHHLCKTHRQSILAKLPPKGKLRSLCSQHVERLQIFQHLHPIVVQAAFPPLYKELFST
Put plainly: In vitro RORc ligand binding assay (25-[3H]hydroxycholesterol displacement).
Conditions: not given
In the case of `Cc1cc(COC2(c3cc(F)c(CN4[C@@H](C)CC[C@H](c5ccccc5)S4(=O)=O)cc3F)COC2)no1` [Example 110, (3S,6R)-2-[[2,5-difluoro-4-[3-[(5-methylisoxazol-3-yl)methoxy]oxetan-3-yl]phenyl]methyl]-3-methyl-6-phenyl-thiazinane 1,1-dioxide], the IC50 turned out to be 1.3 nM.

Turning to `C[C@H]1CC[C@H](c2ccccc2)S(=O)(=O)N1Cc1cc(F)c(C2(NCC3COC(=O)N3)COC2)cc1F` (stereo partly drawn) [Example 125, 4-[[[3-[2,5-difluoro-4-[[(3S,6R)-3-methyl-1,1-dioxo-6-phenyl-thiazinan-2-yl]methyl]phenyl]oxetan-3-yl]amino]methyl]oxazolidin-2-one], the half-maximal inhibitory concentration (IC50) was determined as 56.6 nM. Consider `CCOC(=O)c1nnc(C2(c3cc(F)c(CN4[C@@H](C)CC[C@H](c5ccccc5)S4(=O)=O)cc3F)CCOCC2)o1` [Example 60, ethyl 5-[4-[2,5-difluoro-4-[[(3S,6R)-3-methyl-1,1-dioxo-6-phenyl-thiazinan-2-yl]methyl]phenyl]tetrahydropyran-4-yl]-1,3,4-oxadiazole-2-carboxylate], for which the IC50 came to 4.2 nM. This IC50 lies about 13-fold lower than the previous one.

Take `C[C@H]1CC[C@H](c2ccccc2)S(=O)(=O)N1Cc1ccc(C2(NCc3ccc[nH]c3=O)CCOCC2)cc1F` [Example 77, 3-[[[4-[3-fluoro-4-[[(3S,6R)-3-methyl-1,1-dioxo-6-phenyl-thiazinan-2-yl]methyl]phenyl]tetrahydropyran-4-yl]amino]methyl]-1H-pyridin-2-one]: the IC50 worked out at 87.2 nM. This IC50 lies about 21-fold higher than the previous one. `C[C@H]1CC[C@H](c2ccccc2)S(=O)(=O)N1Cc1cc(F)c(C2(NC(=O)C3CCOC3)COC2)cc1F` (stereo in doubt) [Example 129, N-[3-[2,5-difluoro-4-[[(3S,6R)-3-methyl-1,1-dioxo-6-phenyl-thiazinan-2-yl]methyl]phenyl]oxetan-3-yl]tetrahydrofuran-3-carboxamide] had an IC50 of 32.3 nM. Compound `C[C@H]1CC[C@H](c2ccccc2)S(=O)(=O)N1Cc1cc(F)c(C2(NC(=O)c3cocn3)COC2)cc1F` [Example 96, N-[3-[2,5-difluoro-4-[[(3S,6R)-3-methyl-1,1-dioxo-6-phenyl-thiazinan-2-yl]methyl]phenyl]oxetan-3-yl]oxazole-4-carboxamide] registered an IC50 of 35.6 nM. For the compound `C[C@H]1CC[C@H](c2ccccc2)S(=O)(=O)N1Cc1cc(F)c(C2(NC(=O)c3cc(=O)[nH]o3)COC2)cc1F` [Example 106, N-[3-[2,5-difluoro-4-[[(3S,6R)-3-methyl-1,1-dioxo-6-phenyl-thiazinan-2-yl]methyl]phenyl]oxetan-3-yl]-3-oxo-isoxazole-5-carboxamide], the IC50 was determined as 5.1 nM. `C[C@H]1CC[C@H](c2ccccc2)S(=O)(=O)N1Cc1cc(F)c(C2(NC(=O)Cc3ccon3)CCOCC2)cc1F` [Example 104, N-[4-[2,5-difluoro-4-[[(3S,6R)-3-methyl-1,1-dioxo-6-phenyl-thiazinan-2-yl]methyl]phenyl]tetrahydropyran-4-yl]-2-isoxazol-3-yl-acetamide] registered an IC50 of 2.6 nM. Still for that read-out and setting: with `C[C@H]1CC[C@H](c2ccccc2)S(=O)(=O)N1Cc1cc(F)c([C@]2([C@H](O)Cc3ncn[nH]3)C[C@](C)(O)C2)cc1F` (racemic) [Example 171, 3-[2,5-difluoro-4-[[rac-(3S,6R)-3-methyl-1,1-dioxo-6-phenyl-thiazinan-2-yl]methyl]phenyl]-1-methyl-3-[rac-(1R)-1-hydroxy-2-(1H-1,2,4-triazol-5-yl)ethyl]cyclobutanol] the figure was 50.3 nM; with `C[C@H]1CC[C@H](c2ccccc2)S(=O)(=O)N1Cc1cc(F)c([C@]2(c3n[nH]c(=O)o3)C[C@](C)(O)C2)cc1F` [Example 128, trans-5-[1-[2,5-difluoro-4-[[(3S,6R)-3-methyl-1,1-dioxo-6-phenyl-thiazinan-2-yl]methyl]phenyl]-3-hydroxy-3-methyl-cyclobutyl]-3H-1,3,4-oxadiazol-2-one], 3.4 nM; with `C[C@H]1CC[C@H](c2ccccc2)S(=O)(=O)N1Cc1cc(F)c(C2(NCc3cc(=O)[nH]o3)CCOCC2)cc1F` [Example 82, 5-[[[4-[2,5-difluoro-4-[[(3S,6R)-3-methyl-1,1-dioxo-6-phenyl-thiazinan-2-yl]methyl]phenyl]tetrahydropyran-4-yl]amino]methyl]isoxazol-3-one], 5.7 nM.

In turn, `C[C@H]1CC[C@H](c2ccccc2)S(=O)(=O)N1Cc1ccc(C2(C(=O)NC3CCOC3)CCOCC2)cc1F` (stereo partly drawn) [Example 8, 4-[3-fluoro-4-[[(3S,6R)-3-methyl-1,1-dioxo-6-phenyl-thiazinan-2-yl]methyl]phenyl]-N-tetrahydrofuran-3-yl-tetrahydropyran-4-carboxamide] gave an IC50 of 101 nM. Take `C[C@H]1CC[C@H](c2ccccc2)S(=O)(=O)N1Cc1ccc(C2(NCc3ncccn3)CCOCC2)cc1F` [Example 67, 4-[3-fluoro-4-[[(3S,6R)-3-methyl-1,1-dioxo-6-phenyl-thiazinan-2-yl]methyl]phenyl]-N-(pyrimidin-2-ylmethyl)tetrahydropyran-4-amine]: the IC50 was determined as 9.3 nM.

`C[C@H]1CC[C@H](c2ccccc2)S(=O)(=O)N1Cc1cc(F)c(C2(c3ncn(CC(N)=O)n3)CCOCC2)cc1F` [Example 53, 2-[3-[4-[2,5-difluoro-4-[[(3S,6R)-3-methyl-1,1-dioxo-6-phenyl-thiazinan-2-yl]methyl]phenyl]tetrahydropyran-4-yl]-1,2,4-triazol-1-yl]acetamide] yielded an IC50 of 103 nM. Turning to `C[C@H]1CC[C@H](c2ccccc2)S(=O)(=O)N1Cc1cc(F)c(C2(c3nnc[nH]3)CCOCC2)cc1F` [Example 50, (3S,6R)-2-[[2,5-difluoro-4-[4-(4H-1,2,4-triazol-3-yl)tetrahydropyran-4-yl]phenyl]methyl]-3-methyl-6-phenyl-thiazinane 1,1-dioxide], the IC50 was 28.6 nM. Turning to `C[C@H]1CC[C@@H](c2ccccc2)S(=O)(=O)N1Cc1cc(F)c([C@]2(c3c[nH]c(=O)o3)C[C@@](O)(C3(C)CC3)C2)cc1F` (racemic) [Example 166, 5-[1-[2,5-difluoro-4-[[rac-(3S,6S)-3-methyl-1,1-dioxo-6-phenyl-thiazinan-2-yl]methyl]phenyl]-3-hydroxy-3-(1-methylcyclopropyl)cyclobutyl]-3H-oxazol-2-one], the IC50 came out at 15.5 nM.

On to `C[C@H]1CC[C@H](c2ccccc2)S(=O)(=O)N1Cc1cc(F)c([C@]2(c3nn(C)c(=O)o3)C[C@](C)(O)C2)cc1F` [Example 151, trans 5-[1-[2,5-difluoro-4-[[(3S,6R)-3-methyl-1,1-dioxo-6-phenyl-thiazinan-2-yl]methyl]phenyl]-3-hydroxy-3-methyl-cyclobutyl]-3-methyl-1,3,4-oxadiazol-2-one], for which the IC50 worked out at 6.9 nM. Consider `C[C@H]1CC[C@H](c2ccccc2)S(=O)(=O)N1Cc1cc(F)c(C2(NCc3cnccn3)COC2)cc1F` [Example 89, 3-[2,5-difluoro-4-[[(3S,6R)-3-methyl-1,1-dioxo-6-phenyl-thiazinan-2-yl]methyl]phenyl]-N-(pyrazin-2-ylmethyl)oxetan-3-amine], for which the IC50 turned out to be 7.1 nM. On to `Cc1nnc(C2(c3cc(F)c(CN4[C@@H](C)CC[C@H](c5ccccc5)S4(=O)=O)cc3F)CCOCC2)[nH]1` [Example 48, (3S,6R)-2-[[2,5-difluoro-4-[4-(5-methyl-4H-1,2,4-triazol-3-yl)tetrahydropyran-4-yl]phenyl]methyl]-3-methyl-6-phenyl-thiazinane 1,1-dioxide], for which the IC50 amounted to 21.6 nM. Compared with the last compound, the IC50 is about 3-fold higher. With `C[C@H]1CC[C@H](c2ccccc2)S(=O)(=O)N1Cc1cc(F)c([C@]2(c3c[nH]c(=O)o3)C[C@@](O)(C3CC3)C2)cc1F` [Example 165, 5-[3-cyclopropyl-1-[2,5-difluoro-4-[[(3S,6R)-3-methyl-1,1-dioxo-6-phenyl-thiazinan-2-yl]methyl]phenyl]-3-hydroxy-cyclobutyl]-3H-oxazol-2-one], the IC50 was 6.7 nM.

In turn, `C[C@H]1CC[C@H](c2ccccc2)S(=O)(=O)N1Cc1cc(F)c([C@]2(c3n[nH]c(=O)o3)C[C@@](O)(CC#N)C2)cc1F` (racemic) [Example 176, 2-[3-[2,5-difluoro-4-[[rac-(3S,6R)-3-methyl-1,1-dioxo-6-phenyl-thiazinan-2-yl]methyl]phenyl]-1-hydroxy-3-(2-oxo-3H-1,3,4-oxadiazol-5-yl)cyclobutyl]acetonitrile] came in with an IC50 of 5.4 nM. `CO[C@H]1C[C@](c2n[nH]c(=O)o2)(c2cc(F)c(CN3[C@@H](C)CC[C@H](c4ccccc4)S3(=O)=O)cc2F)C1` [Example 155, cis 5-[1-[2,5-difluoro-4-[[(3S,6R)-3-methyl-1,1-dioxo-6-phenyl-thiazinan-2-yl]methyl]phenyl]-3-methoxy-cyclobutyl]-3H-1,3,4-oxadiazol-2-one] had an IC50 of 11.3 nM. In turn, `C[C@H]1CC[C@H](c2ccccc2)S(=O)(=O)N1Cc1cc(F)c(C2(Nc3cnccn3)CCOCC2)cc1F` [Example 118, N-[4-[2,5-difluoro-4-[[(3S,6R)-3-methyl-1,1-dioxo-6-phenyl-thiazinan-2-yl]methyl]phenyl]tetrahydropyran-4-yl]pyrazin-2-amine] registered an IC50 of 5.2 nM. Take `C[C@H]1CC[C@H](c2ccccc2)S(=O)(=O)N1Cc1cc(F)c([C@]2(c3nnc[nH]3)C[C@@H](O)C2)cc1F` [Example 115, 3-[2,5-difluoro-4-[[(3S,6R)-3-methyl-1,1-dioxo-6-phenyl-thiazinan-2-yl]methyl]phenyl]-3-(4H-1,2,4-triazol-3-yl)cyclobutanol]: the IC50 came out at 7.8 nM. This IC50 is about 1.5-fold higher than that of the compound before.

The test is the same for the next values; noted with them: IC50 values for RORc.
For `C[C@H]1CC[C@H](c2ccccc2)S(=O)(=O)N1Cc1cc(F)c(C2(c3c[nH]c(=O)o3)CC(O)C2)cc1F` (mixture of isomers) [Example 163, 5-[1-[2,5-difluoro-4-[[rac-(3S,6R)-3-methyl-1,1-dioxo-6-phenyl-thiazinan-2-yl]methyl]phenyl]-3-hydroxy-cyclobutyl]-3H-oxazol-2-one], the IC50 was determined as 4.3 nM.

Source of the values: patent publication US10259808B2 (Genentech, Inc., priority 2015, dated 2019).
